In patent US10836775B2, “6,6-fused heteroaryl piperidine ether allosteric modulators of the M4 muscarinic acetylcholine receptor” (Merck Sharp & Dohme Corp., priority 2016, dated 2020):

Molecular target: T1, human M4 muscarinic acetylcholine receptor (Homo sapiens, UniProt P08173)
T1 construct: expressed in transfected cells; host or cells: CHO-K1
T1 sequence (P08173 1-479): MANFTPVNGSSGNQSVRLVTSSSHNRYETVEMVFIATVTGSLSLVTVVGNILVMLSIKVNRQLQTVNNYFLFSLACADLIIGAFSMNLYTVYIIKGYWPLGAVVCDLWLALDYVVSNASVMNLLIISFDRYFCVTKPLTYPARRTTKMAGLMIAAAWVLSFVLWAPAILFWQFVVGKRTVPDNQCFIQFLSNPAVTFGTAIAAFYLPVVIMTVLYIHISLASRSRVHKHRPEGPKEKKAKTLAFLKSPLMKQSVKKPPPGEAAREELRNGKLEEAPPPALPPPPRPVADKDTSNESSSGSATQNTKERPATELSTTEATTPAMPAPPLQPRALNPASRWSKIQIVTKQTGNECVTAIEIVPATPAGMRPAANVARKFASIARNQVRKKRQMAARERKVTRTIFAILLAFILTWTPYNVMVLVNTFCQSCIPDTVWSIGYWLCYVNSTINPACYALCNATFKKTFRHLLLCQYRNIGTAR
Assay: human FLIPR-based M4 PAM assay (CHO-K1 cells, human M4 receptor and Gαqi5, calcium dye fluorescence, acetylcholine at 20% of maximum)
Format: cell-based
Conditions: inflection point (IP) of 4 parameter logistic dose response curve; CHO-K1 cells with human M4 receptor and Gαqi5; FLIPR Tetra
Method: In a typical experiment the M4 muscarinic acetylcholine receptor modulating activity of the compounds of the present invention was determined in accordance with the following experimental method. […] On the day of assay, growth medium is removed, the cells are washed 2 times with wash buffer, and cells are incubated in dye loading buffer at 37° C., 5% CO2 for ˜1 hour. […] Next, 10 uL of acetylcholine is added (final concentration calculated so as to achieve 20% of the maximum acetycholine response), and the fluorescence reading is continued for 3.5 min. In some cases, a third addition of acetylcholine (final concentration calculated to achieve 70% of the maximal acetylcholine response) is performed. The resulting dose response curves are fit to a 4 parameter logistic equation and the final result is determined as the inflection point (IP) of the curve
CHO-K1 cells stably transfected with human M4 receptor and chimeric G-protein Gαqi5 are thawed from liquid N2 storage, resuspended in growth medium, plated in black, clear bottom 384 well plates, and incubated 16-20 hours at 37° C., 5% CO2.
On the day of assay, growth medium is removed, the cells are washed 2 times with wash buffer, and cells are incubated in dye loading buffer at 37° C., 5% CO2 for ˜1 h. […] Next, 10 uL of acetylcholine is added (final concentration calculated so as to achieve 20% of the maximum acetycholine response), and the fluorescence reading is continued for 3.5 min. In some cases, a third addition of acetylcholine (final concentration calculated to achieve 70% of the maximal acetylcholine response) is performed.

`COc1ccc(OC2CCN(c3nc4c(cc3C)C(=O)NCC4)CC2)cn1` [Example 1, 2-(4-((6-Methoxypyridin-3-yl)oxy)piperidin-1-yl)-3-methyl-7,8-dihydro-1,6-naphthyridin-5(6H)-one] and `COc1ccc(OC2CCN(c3nc4c(cc3C)C(=O)N(C)CC4)CC2)cn1` [Example 4, 2-(4-((6-methoxypyridin-3-yl)oxy)piperidin-1-yl)-3,6-dimethyl-7,8-dihydro-1,6-naphthyridin-5(6H)-one] are within 1.5-fold of each other in EC50: 393 nM for the first, 431 nM for the second.

Going from `COc1ccc(CN2CCc3nc(N4CCC(Oc5ccc(OC)nc5)CC4)c(C)cc3C2=O)cc1` [Example 2, 6-(4-methoxybenzyl)-2-(4-((6-methoxypyridin-3-yl)oxy)piperidin-1-yl)-3-methyl-7,8-dihydro-1,6-naphthyridin-5(6H)-one] to `COc1ccc(OC2CCN(c3nc4c(cc3C)C(=O)N(Cc3ccncc3)CC4)CC2)cn1` [Example 3, 2-(4-((6-methoxypyridin-3-yl)oxy)piperidin-1-yl)-3-methyl-6-(pyridin-4-ylmethyl)-7,8-dihydro-1,6-naphthyridin-5(6H)-one], the EC50 falls from 988 nM to 453 nM (2.2-fold).

Compared with `COc1ccc(OC2CCN(c3nc4c(cc3C)c(=O)[nH]c(=O)n4C)CC2)cn1` [Example 5, 7-(4-((6-Methoxypyridin-3-yl)oxy)piperidin-1-yl)-1,6-dimethylpyrido[2,3-d]pyrimidine-2,4(1H,3H)-dione], `COc1ccc(OC2CCN(c3nc4[nH]c(=O)n(C)c(=O)c4cc3C)CC2)cn1` [Example 6, 7-(4-((6-Methoxypyridin-3-yl)oxy)piperidin-1-yl)-3,6-dimethylpyrido[2,3-d]pyrimidine-2,4(1H,3H)-dione] is 6.2-fold lower in EC50: 366 nM for the first, 59 nM for the second.

First: Cc1cc2c(=O)[nH]c(=O)[nH]c2nc1N1CCC(Oc2cccc(C#N)c2)CC1 [Example 7, 3-((1-(6-methyl-2,4-dioxo-1,2,3,4-tetrahydro-pyrido[2,3-d]pyrimidin-7-yl)piperidin-4-yl)oxy)benzonitrile]
Second: Cc1cc2c(=O)[nH]cnc2nc1N1CCC(Oc2cccc(C#N)c2)CC1 [Example 15, 3-((1-(6-methyl-4-oxo-3,4-dihydropyrido[2,3-d]pyrimidin-7-yl)piperidin-4-yl)oxy)benzonitrile]
The EC50 of the first is 1.8-fold higher: 41 nM for the first, 23 nM for the second.

Going from `COc1ccc(OC2CCN(c3nc4[nH]c(=O)[nH]c(=O)c4cc3C)CC2)cn1` [Example 8, 7-(4-((6-Methoxypyridin-3-yl)oxy)piperidin-1-yl)-6-methylpyrido[2,3-d]pyrimidine-2,4(1H,3H)-dione] to `COc1ccc(OC2CCN(c3nc4nc(C)[nH]c(=O)c4cc3C)CC2)cn1` [Example 19, 7-(4-((6-methoxypyridin-3-yl)oxy)piperidin-1-yl)-2,6-dimethylpyrido[2,3-d]pyrimidin-4(3H)-one], the EC50 rises from 18 nM to 74 nM (4.1-fold).

`COc1ccc(OC2CCN(c3nc4nc(CO)[nH]c(=O)c4cc3C)CC2)cn1` [Example 9, 2-(Hydroxymethyl)-7-(4-((6-methoxypyridin-3-yl)oxy)piperidin-1-yl)-6-methylpyrido[2,3-d]pyrimidin-4(3H)-one] and `COCc1nc2nc(N3CCC(Oc4ccc(OC)nc4)CC3)c(C)cc2c(=O)[nH]1` [Example 28, 2-(methoxymethyl)-7-(4-((6-methoxypyridin-3-yl)oxy)piperidin-1-yl)-6-methylpyrido[2,3-d]pyrimidin-4(3H)-one] are within 1.5-fold of each other in EC50: 140 nM for the first, 95 nM for the second.

Going from `COc1ccc(OC2CCN(c3nc4nc[nH]c(=O)c4cc3C)CC2)cn1` [Example 10, 7-(4-((6-methoxypyridin-3-yl)oxy)piperidin-1-yl)-6-methylpyrido[2,3-d]pyrimidin-4(3H)-one] to `COc1ccc(OC2CCN(c3nc4cn[nH]c(=O)c4cc3C)CC2)cn1` [Example 11, 2-(4-((6-methoxypyridin-3-yl)oxy)piperidin-1-yl)-3-methylpyrido[2,3-d]pyridazin-5(6H)-one], the EC50 falls from 34 nM to 22 nM (1.5-fold).

Compared with `COc1ccc(OC2CCN(c3nc4cc[nH]c(=O)c4cc3C)CC2)cn1` [Example 12, 2-(4-((6-methoxypyridin-3-yl)oxy)piperidin-1-yl)-3-methyl-1,6-naphthyridin-5(6H)-one], `COc1ccc(OC2CCN(c3nc4cnn(C)c(=O)c4cc3C)CC2)cn1` [Example 13, 2-(4-((6-methoxypyridin-3-yl)oxy)piperidin-1-yl)-3,6-dimethylpyrido[2,3-d]pyridazin-5(6H)-one] is 1.9-fold lower in EC50: 114 nM for the first, 61 nM for the second. The second is the more potent here.

Compared with `Cc1cc2c(=O)[nH]cnc2nc1N1CCC(Oc2ccccc2)CC1` [Example 14, 6-methyl-7-(4-phenoxypiperidin-1-yl)pyrido[2,3-d]pyrimidin-4(3H)-one], `Cc1cc2c(=O)[nH]cnc2nc1N1CCC(Oc2cccnc2)CC1` [Example 16, 6-methyl-7-(4-(pyridin-3-yloxy)piperidin-1-yl)pyrido[2,3-d]pyrimidin-4(3H)-one] is 2.7-fold higher in EC50: 80 nM for the first, 213 nM for the second.

First: Cc1cc2c(=O)[nH]cnc2nc1N1CCC(OCC2CC2)CC1 [Example 17, 7-(4-(cyclopropyl-methoxy)piperidin-1-yl)-6-methylpyrido[2,3-d]pyrimidin-4(3H)-one]
Second: Cc1cc2c(=O)[nH]ncc2nc1N1CCC(OCC2CCCC2)CC1 [Example 18, 2-(4-(cyclopentyl-methoxy)piperidin-1-yl)-3-methylpyrido[2,3-d]pyridazin-5(6H)-one]
The EC50 of the first is 2.1-fold lower: 121 nM for the first, 254 nM for the second. The first is the more potent here.

First: Cc1nc2nc(N3CCC(OCC4(C)CC4)CC3)c(C)cc2c(=O)[nH]1 [Example 20, 2,6-dimethyl-7-(4-((1-methylcyclopropyl)methoxy)piperidin-1-yl)pyrido[2,3-d]pyrimidin-4(3H)-one]
Second: Cc1cc2c(=O)[nH]c(=O)[nH]c2nc1N1CCC(OCC2(C)CC2)CC1 [Example 25, 6-methyl-7-(4-((1-methylcyclopropyl)methoxy)piperidin-1-yl)pyrido[2,3-d]pyrimidine-2,4(1H,3H)-dione]
The EC50 of the first is 2.6-fold higher: 50 nM for the first, 19 nM for the second. The second is the more potent here.

First: Cc1cc2c(=O)[nH]ncc2nc1N1CCC(Oc2cccc(C#N)c2)CC1 [Example 21, 3-((1-(3-methyl-5-oxo-5,6-dihydropyrido[2,3-d]pyridazin-2-yl)piperidin-4-yl)oxy)benzonitrile]
Second: Cc1cc2c(=O)[nH]ncc2nc1N1CCC(Oc2cnn(C)c2)CC1 [Example 23, 3-methyl-2-(4-((1-methyl-1H-pyrazol-4-yl)oxy)piperidin-1-yl)pyrido[2,3-d]pyridazin-5(6H)-one]
The EC50 of the first is 6.1-fold lower: 26 nM for the first, 158 nM for the second. The first is the more potent here.

First: Cc1nc2nc(N3CCC(Oc4cnc5c(c4)COC5)CC3)c(C)cc2c(=O)[nH]1 [Example 22, 7-(4-((5,7-dihydrofuro[3,4-b]pyridin-3-yl)oxy)piperidin-1-yl)-2,6-dimethylpyrido[2,3-d]pyrimidin-4(3H)-one]
Second: Cc1cc2c(=O)[nH]ncc2nc1N1CCC(Oc2cnc3c(c2)COC3)CC1 [Example 29, 2-(4-((5,7-dihydrofuro[3,4-b]pyridin-3-yl)oxy)piperidin-1-yl)-3-methylpyrido[2,3-d]pyridazin-5(6H)-one]
The EC50 of the first is 3-fold higher: 158 nM for the first, 53 nM for the second.

Compared with `Cc1cc2c(=O)[nH]ncc2nc1N1CCC(OCC2(C)CC2)CC1` [Example 24, 3-methyl-2-(4-((1-methylcyclopropyl)methoxy)piperidin-1-yl)pyrido[2,3-d]pyridazin-5(6H)-one], `CCc1cc2c(=O)[nH]c(=O)[nH]c2nc1N1CCC(OCC2(C)CC2)CC1` [Example 31, 6-ethyl-7-(4-((1-methylcyclopropyl)methoxy)piperidin-1-yl)pyrido[2,3-d]pyrimidine-2,4(1H,3H)-dione] is 2.3-fold higher in EC50: 18 nM for the first, 42 nM for the second.

Going from `Cc1cc2c(=O)[nH]c(=O)[nH]c2nc1N1CCC(Oc2cnn(C)c2)CC1` [Example 26, 6-methyl-7-(4-((1-methyl-1H-pyrazol-4-yl)oxy)piperidin-1-yl)pyrido[2,3-d]pyrimidine-2,4(1H,3H)-dione] to `Cc1nc2nc(N3CCC(Oc4cnn(C)c4)CC3)c(C)cc2c(=O)[nH]1` [Example 27, 2,6-dimethyl-7-(4-((1-methyl-1H-pyrazol-4-yl)oxy)piperidin-1-yl)pyrido[2,3-d]pyrimidin-4(3H)-one], the EC50 rises from 90 nM to 494 nM (5.5-fold).

First: COCCc1nc2nc(N3CCC(Oc4ccc(OC)nc4)CC3)c(C)cc2c(=O)[nH]1 [Example 30, 2-(2-methoxyethyl)-7-(4-((6-methoxypyridin-3-yl)oxy)piperidin-1-yl)-6-methylpyrido[2,3-d]pyrimidin-4(3H)-one]
Second: Cc1cc2c(=O)[nH]c(=O)[nH]c2nc1N1CCC(OCC2CCC2)CC1 [Example 32, 7-(4-(cyclobutyl-methoxy)piperidin-1-yl)-6-methylpyrido[2,3-d]pyrimidine-2,4(1H,3H)-dione]
The EC50 of the first is 2.3-fold higher: 546 nM for the first, 236 nM for the second.
